Measured values published in US11779602B2, “Methods of use for CAR T cells” (ENDOCYTE, INC., priority 2018, dated 2023).

How the values were obtained:
[1] = test system: FR+ (KB, MDA-MB-231, HOS-FRα^fLuc, THP1-FRβ) tumor cell lines; test: CAR-T cell exhaustion markers and target cell apoptosis in co-culture with EC17-preloaded targets; assay type: cell-based, human; conditions: EC17 pre-loading 0.1 or 10 nM, E/T 1:2, day 2
Experimental: To study CAR-T cell activation in the presence of FR+ tumor cell targets (FIGS. 53A-D), co-culture experiments were initially carried out with MDA-MB-231, THP1-FRβ and HOS-FRα. […] After 24 hours of co-culture, the surface expression of T cell activation markers CD69, CD137 (4-1BB), and PD1 were analyzed by flow cytometry. For T cell exhaustion studies (FIGS. 54A-C), FR+ (KB, MDA-MB-231, HOS-FRα^fLuc, THP1-FRβ) and FR-negative (HOS-143b^fLuc, THP1-FG12) tumor cell lines were used as targets. Here, target cells were incubated on day 0 without or with 0.1 and 10 nM of EC17 for 30 min at 37° C. and the status of EC17 “pre-loading” was assessed by counterstaining cell-surface EC17 with an anti-FITC antibody (FIG. 61A). Three days later, the surface expression of PD1, LAG3, and TIM3 inhibitor receptors on co-cultured CAR-T cells were analyzed and higher frequencies of double- and triple-positive cells were considered approaching an exhausted phenotype.
To examine antigen-dependent CAR-T cell activation, MDA-MB-231, THP1-FRβ and HOS-FRα cells were preloaded with 100 nM EC17 over 30 min. […] After 24 hours of co-culture, we measured the surface expression of T cell activation markers CD69, CD137 (4-1BB) and PD1 (FIGS. 53A-D). […] Three days later, co-cultured CAR-T cells were measured for upregulation and co-expression of T cell activation/exhaustion markers PD1, LAGS and TIM3. […]

MDA-MB-231 tumors = test: CAR-T/EC17 therapy, fixed dose and dose de-escalation, in mice bearing MDA-MB-231 tumors; assay type: in vivo; conditions: 4M5.3-CAR-T 30 million cells, EC17 de-escalation
Source text: The effect of EC17 dose de-escalation was investigated on the anti-tumor activity and the toxicity (body weight changes) of CAR-T therapy. Two different anti-fluorescein scFv were used for the CAR constructions (FIG. 1). The first construct of CAR contains the following domains: antiFL(FITC-E2)scFv-IgG4 hinge (CH2 (L235D, N297Q)-CH3)-CD28 TM-4-1BB-CD3z-T2A-EGFRt. The second construct of CAR contains the following domains: antiFL(FITC-4M5.3)scFv-IgG4 hinge (CH2 (L235D, N297Q)-CH3)-CD28 TM-4-1BB-CD3z-T2A-EGFRt. The nucleic acid sequence and amino acid sequence of the CAR of each construct are shown as SEQ ID NOS:1 to 4. Human T cells were isolated, activated and transduced with a lentiviral vector carrying the appropriate CAR gene. CD4+ T cells with the CAR-modification and CD8+ T cells with the CAR-modification were isolated and cultured separately in vitro for about 7 days. CD4+ CAR-T cells and CD8+ CAR-T cells were mixed at a 1:1 ratio before i.v. administration for animal studies.
The second construct 4M5.3-CAR (antiFL(FITC-4M5.3) scFv-IgG4 hinge (CH2 (L235D, N297Q)-CH3)-CD28 TM-4-1BB-CD3z-T2A-EGFRt) was also evaluated. Mice bearing MDA-MB-231 tumors (150-250 mm^3) were used for in vivo studies to evaluate 4M5.3-CAR-T cells. […]

NC1=NC2N=CC(CNc3ccc(C(=O)N[C@@H](CCC(=O)NCCNC(=S)Nc4ccc(-c5c6ccc(=O)cc-6oc6cc(O)ccc56)c(C(=O)O)c4)C(=O)O)cc3)=NC2C(=O)N1 (some centres unmarked) [EC17, FA-(γ)-ethylenediamine-FITC]
target cell apoptosis (Annexin V+) [1]: dose-dependent apoptosis (Annexin V+) was seen in all FR+ tumor cell lines | EC17 dose dependence of anti-tumor activity and body weight loss (MDA-MB-231 tumors): dose dependent anti-tumor activity and body weight loss
